In ChEMBL document CHEMBL6120969, “Distinctive Immune Signatures Driven by Structural Alterations in Desmuramylpeptide NOD2 Agonists” (J Med Chem, 2024):

Assay: Cytotoxicity against human HEK-Blue hNOD2 cells assessed as metabolic activity at 10 uM incubated for 18 hes by MTT assay
Format: toxicity, cell-based
Settings: hek-blue hnod2, 10 µM
With `CCCCC/C=C\C/C=C\C/C=C\CCCCC(=O)Oc1ccc(/C=C/C(=O)NCC(=O)N[C@H](C(=O)N[C@H](CCC(=O)OCC)C(=O)OCC)C(C)C)cc1OC` the Activity was “Non-toxic”. For `CCCCCCCCCCCCCC(=O)Oc1ccc(/C=C/C(=O)NCC(=O)N[C@H](C(=O)N[C@H](CCC(=O)OCC)C(=O)OCC)C(C)C)cc1OC`, the Activity was “Non-toxic”. With `CC/C=C\C/C=C\C/C=C\CCCCCCCC(=O)Oc1ccc(/C=C/C(=O)NCC(=O)N[C@H](C(=O)N[C@H](CCC(=O)OCC)C(=O)OCC)C(C)C)cc1OC` the Activity was “Non-toxic”. With `CC/C=C\C/C=C\C/C=C\C/C=C\C/C=C\C/C=C\CCC(=O)Oc1ccc(/C=C/C(=O)NCC(=O)N[C@H](C(=O)N[C@H](CCC(=O)OCC)C(=O)OCC)C(C)C)cc1OC` the Activity was “Non-toxic”. For `CCCCCC(CCCCC)C(=O)Oc1ccc(/C=C/C(=O)NCC(=O)N[C@H](C(=O)N[C@H](CCC(=O)OCC)C(=O)OCC)C(C)C)cc1OC`, the Activity was “Non-toxic”. For `CCCCC/C=C\C/C=C\CCCCCCCC(=O)Oc1ccc(/C=C/C(=O)NCC(=O)N[C@H](C(=O)N[C@H](CCC(=O)OCC)C(=O)OCC)C(C)C)cc1OC`, the Activity was “Non-toxic”. For `CCCCCC(=O)Oc1ccc(/C=C/C(=O)NCC(=O)N[C@H](C(=O)N[C@H](CCC(=O)OCC)C(=O)OCC)C(C)C)cc1OC`, the Activity was “Non-toxic”. In the case of `CCCCC(CCCC)C(=O)Oc1ccc(/C=C/C(=O)NCC(=O)N[C@H](C(=O)N[C@H](CCC(=O)OCC)C(=O)OCC)C(C)C)cc1OC`, the Activity is reported as “Non-toxic”. For `CCCCCCCCCCCCCCCCCC(=O)Oc1ccc(/C=C/C(=O)NCC(=O)N[C@H](C(=O)N[C@H](CCC(=O)OCC)C(=O)OCC)C(C)C)cc1OC`, the Activity was “Non-toxic”. With `CCCCCCCC(=O)Oc1ccc(/C=C/C(=O)NCC(=O)N[C@H](C(=O)N[C@H](CCC(=O)OCC)C(=O)OCC)C(C)C)cc1OC` the Activity was “Non-toxic”. In the case of `CCCCCC(CCC)C(=O)Oc1ccc(/C=C/C(=O)NCC(=O)N[C@H](C(=O)N[C@H](CCC(=O)OCC)C(=O)OCC)C(C)C)cc1OC` (stereo partly drawn), the Activity is reported as “Non-toxic”. In the case of `CCOC(=O)[C@@H](CCC(=O)OCCN1CCOCC1)NC(=O)[C@@H](NC(=O)CNC(=O)/C=C/c1ccc(O)c(OC)c1)C(C)C`, the Activity is reported as “Non-toxic”. In the case of `CCOC(=O)CC[C@@H](NC(=O)[C@@H](NC(=O)CNC(=O)/C=C/c1cc(OC)c(O)c(OC)c1)C(C)C)C(=O)OCC`, the Activity is reported as “Non-toxic”. With `CCCCCCCCCCCCCCCC(=O)Oc1ccc(/C=C/C(=O)NCC(=O)N[C@H](C(=O)N[C@H](CCC(=O)OCC)C(=O)OCC)C(C)C)cc1OC` the Activity was “Non-toxic”. With `CCCCCCCCCC(=O)Oc1ccc(/C=C/C(=O)NCC(=O)N[C@H](C(=O)N[C@H](CCC(=O)OCC)C(=O)OCC)C(C)C)cc1OC` the Activity was “Non-toxic”. For `CCCCCCC(CC)C(=O)Oc1ccc(/C=C/C(=O)NCC(=O)N[C@H](C(=O)N[C@H](CCC(=O)OCC)C(=O)OCC)C(C)C)cc1OC` (stereo partly drawn), the Activity was “Non-toxic”. For `CCOC(=O)CC[C@@H](NC(=O)[C@@H](NC(=O)CNC(=O)/C=C/c1ccc(OC(=O)CCCCCCCCCCCCCO)c(OC)c1)C(C)C)C(=O)OCC`, the Activity was “Non-toxic”. For `CCOC(=O)[C@@H](CCC(=O)NCCCNCCCCN)NC(=O)[C@@H](NC(=O)CNC(=O)/C=C/c1ccc(O)c(OC)c1)C(C)C`, the Activity was “Non-toxic”. With `CCCCCCCC/C=C\CCCCCCCC(=O)Oc1ccc(/C=C/C(=O)NCC(=O)N[C@H](C(=O)N[C@H](CCC(=O)OCC)C(=O)OCC)C(C)C)cc1OC` the Activity was “Non-toxic”. For `CCCCCC(C)C(=O)Oc1ccc(/C=C/C(=O)NCC(=O)N[C@H](C(=O)N[C@H](CCC(=O)OCC)C(=O)OCC)C(C)C)cc1OC` (stereo partly drawn), the Activity was “Non-toxic”. For `CCCCC(CC)C(=O)Oc1ccc(/C=C/C(=O)NCC(=O)N[C@H](C(=O)N[C@H](CCC(=O)OCC)C(=O)OCC)C(C)C)cc1OC` (stereo partly drawn), the Activity was “Non-toxic”. For `CCOC(=O)CC[C@@H](NC(=O)[C@@H](NC(=O)CNC(=O)/C=C/c1ccc(OC(=O)CCCC2CCCCC2)c(OC)c1)C(C)C)C(=O)OCC`, the Activity was “Non-toxic”. In the case of `CCOC(=O)[C@@H](CCC(=O)NCCCCN)NC(=O)[C@@H](NC(=O)CNC(=O)/C=C/c1ccc(O)c(OC)c1)C(C)C`, the Activity is reported as “Non-toxic”.
